Assay results: paper PMC12040169 (PLOS Biology, 2025)

Test: in vitro
Details: human, hela cells, % viability

| SMILES | viability at 28.5 h, 10 µM [%] |
| --- | --- |
| O=C(C1CCC1)N1CC(n2nc(-c3ccccc3)ccc2=O)C1 [CBK284624] | 79.2 |
| NC(=O)c1ccc(C(=O)NCC2CN3CCCN2CC3)cc1 (stereo not drawn) [CBK304143] | 114 |
| COC(=O)Nc1ncc(CN2CCc3ccccc3C2)s1 [CBK268376] | 97.5 |
| COc1ccc(C2N(Cc3ccccc3)CCN2Cc2ccccc2)c(OC)c1OC [CBK265220] | 104 |
| CC(C(=O)N1CCC(c2ccncc2)CC1)c1ccccc1 (stereo not drawn) [CBK285484] | 99.1 |
| c1ccc(-c2nc(C3CCCC3)n3ccccc23)cc1 [CBK149260] | 93.3 |
| CC(C)(C)NC(=O)[C@@H]1CNC[C@]12Cc1ccccc1C(=O)N2 [CBK285294] | 103 |
| Cn1cncc1C(=O)NC1Cc2ccccc2C1 [CBK200362] | 107 |
| COc1cc(CNCc2ccccn2)ccc1OCc1ccccc1C [CBK270108C] | 89.3 |
| O=C(c1ccno1)N1CCC(Cc2ccccc2)CC1 [CBK200185] | 112 |
| FC(F)(F)c1cc(-c2cc(N3CCC(N4CCCCC4)CC3)ncn2)cc(C(F)(F)F)c1 [CBK037692] | 92.6 |
| CC(C)(C)NC(=O)CNS(=O)(=O)c1ccccc1 [CBK265807] | 85.5 |
| O=C1c2ccccc2S(=O)(=O)N1CC(O)Cn1ccc2ccccc21 (stereo not drawn) [CBK267905] | 97.6 |
| O=C(CSc1ccc(Cl)cc1)Nc1cc(Cl)ccc1C(=O)O [CBK264217] | 115 |
| O=C(O)CC(NC=C1C(=O)CCCC1=O)C(=O)O (stereo not drawn) [CBK261997] | 85.2 |
| O=C(Nc1cccc2ncccc12)c1ccnc(N2CCOCC2)c1 [CBK287882] | 102 |
| CCN(CC)CCN(Cc1ccc2c(c1)OCO2)C(=O)Nc1ccc(C)cc1 [CBK159059] | 89.3 |
| COCCNc1cc(-c2ccco2)ncn1 [CBK090796] | 92.5 |
| COc1cc(-c2cncc(N(CCO)CCO)n2)cc(OC)c1OC [CBK065544] | 112 |
| Cc1ccc2[nH]c(C)c(CC(=O)N(C)CCN(C)C)c2c1 [CBK282674] | 105 |
| NC1CCN(C(=O)Cn2ccc3ccnc(-c4cccs4)c32)CC1 [CBK284750] | 85.7 |
| COc1ccccc1-c1cc2nc(C)cc(N3CCOCC3)n2n1 [CBK304532] | 88.7 |

| SMILES | viability at 28.5 h, 10 µM [%] |
| --- | --- |
| CC1CCc2c(sc(NC(=O)c3cccs3)c2C(=O)N2CCOCC2)C1 (stereo not drawn) [CBK307101] | 100 |
| C(#Cc1ccc(-c2cc[nH]n2)s1)c1ccccc1 [CBK023413] | 118 |
| Cc1cc(=O)[nH]c(C)c1C(=O)N1CCC(N2CCCC(CO)C2)CC1 (stereo not drawn) [CBK307158] | 103 |
| CS(=O)(=O)c1ccc(CNc2nccnc2-c2ccccc2F)cc1 [CBK036836] | 96.4 |
| COCCN(C(=O)CSc1ccc2ccccc2n1)C1CCS(=O)(=O)C1 (stereo not drawn) [CBK304988] | 96.4 |
| NC(=O)c1cccc(-c2nccnc2N2CCN(CCO)CC2)c1 [CBK036726] | 96.9 |
| Cc1nnc(Sc2nc(CN3CCOCC3)nc3scc(-c4cccs4)c23)n1C [CBK297092] | 103 |
| CCn1c(-c2nonc2NC(C)=O)nc2ccccc21 [CBK062645] | 80 |
| CC(Sc1ccc(Cl)cc1)C(=O)NCCN1CCOCC1 (stereo not drawn) [CBK269316] | 111 |
| C=CCC1(CC=C)CCN1C(=O)c1cc2c([nH]c1=O)CCCCC2 [CBK282524] | 103 |
| COc1ccc(C)cc1S(=O)(=O)N(CC(=O)N1CCN(C)CC1)c1cccc(C(F)(F)F)c1 [CBK269355] | 96.2 |
| c1coc(-c2cn3ccnc3c(NCCc3ccncc3)n2)c1 [CBK037333] | 93.5 |
| O=C(c1ccccc1F)N1CCCC1c1n[nH]cc1-c1ccncc1 (stereo not drawn) [CBK283428] | 87.7 |
| Cc1ccccc1CCNC(=O)CCc1c(C)nc2nc(N)nn2c1C [CBK304994] | 93.6 |
| CCOCC1CCN(C(=O)c2ncsc2Nc2ccccc2)C1 (stereo not drawn) [CBK304204] | 117 |
| CCC1(CC)OC(NCc2ccccc2)=NC1=O [CBK122636] | 86.2 |
| O=C(Nc1ccc(Cl)cc1)N1Cc2nc[nH]c2C[C@H]1c1nc(-c2ccncc2)no1 [CBK288964] | 91.4 |
| CCN1CCN(C(=O)c2ccccc2N(Cc2ccccc2)S(=O)(=O)c2ccc(C)cc2)CC1 [CBK266827] | 91.6 |
| NC1=C2NN(c3ccc(Cl)cc3Cl)N=C2N(c2ccccc2)N1 [CBK107773] | 98.1 |
| Cc1c(C(=O)N2CC(n3cc(C(C)O)nn3)C2)sc2ccc(F)cc12 (stereo not drawn) [CBK305446] | 94.5 |
| CC(NS(=O)(=O)c1ccc(Cl)cc1)C(=O)Nc1ccccc1Sc1ccccc1 (stereo not drawn) [CBK266984] | 98.4 |
| O=C(Cc1ccccc1)N1CCN(S(=O)(=O)N2CCOCC2)CC1 [CBK268857] | 108 |

| SMILES | viability at 28.5 h, 10 µM [%] |
| --- | --- |
| Cc1c(C)n(Cc2ccco2)c2ncnc(NC(C)C(=O)O)c12 (stereo not drawn) [CBK307561] | 106 |
| CC(C)(CC(=O)O)CC(=O)N1CCCC1c1nc(-c2ccccc2)c2ccccn12 (stereo not drawn) [CBK046399] | 98.8 |
| COc1ccc(S(=O)(=O)NCCN2CCOCC2)c(Cl)c1Cl [CBK269999] | 95 |
| Cc1ncc(CN(CCN(C)C)Cc2cccs2)n1C [CBK282993] | 93.4 |
| Cc1cc(NC(=O)C2CCN(C)CC2)c2ccccc2n1 [CBK122730] | 91.1 |
| O=S(=O)(Cc1ccc(Br)cc1F)c1ccccn1 [CBK019368] | 90.4 |
| COC(=O)c1ccc(-c2ccc(F)cc2OC)nc1 [CBK149230] | 88.3 |
| CC(=O)Nc1ccc(-c2ccc(C(=O)N3CCN(C(=O)OCc4ccccc4)CC3)cn2)cc1 [CBK160185] | 87.6 |
| CCCCCNC(=O)NCCC1=CCCCC1 [CBK043796] | 96.9 |
| CCn1c2ccccc2c2ccc(/C=N/NC(=O)c3ccc(O)cc3O)cc21 [CBK262948] | 56.9 |
| O=C(c1ccccc1NS(=O)(=O)c1cccc2cccnc12)N1CCOCC1 [CBK043338] | 87.1 |
| COc1ccc(C2=Nc3ccc(Br)cc3C(c3ccccc3)N2CC(=O)NN)cc1 (stereo not drawn) [CBK263141] | 95.8 |
| O=C(NCc1ccccn1)/C(=N/O)c1ccccc1 [CBK288472] | 114 |
| S=C(NCCc1c[nH]c2ccccc12)NCc1ccco1 [CBK267157] | 92.7 |
| COC1CCC(C(=O)Nc2cnc(-c3ccc(F)c(Cl)c3)c(-c3ccc(C(C)=O)s3)n2)CC1 (stereo not drawn) [CBK036718] | 99.3 |
| O=C(Cc1ccccc1)N1CCN(Cc2ccccn2)CC1 [CBK263039] | 88.6 |
| COc1ccc(C2(C(=O)NCc3cnc(C)cn3)CC2)cc1 [CBK149830] | 98.5 |
| COC(=O)CCN(C)CCC(=O)OC [CBK264539C] | 95.4 |
| CC(=O)Nc1ccc(SC(C)c2nsc(NS(=O)(=O)c3ccc(-c4ccccc4)cc3)n2)cc1 (stereo not drawn) [CBK047508] | 91.5 |
| O=C(Nc1ccc(N2CCOCC2)cc1)c1ccc(-n2cnnc2)cc1Cl [CBK269889] | 91 |
| Nc1ncc(-c2ccncc2)nc1NCCCN1CCOCC1 [CBK063631] | 98.9 |
| Cc1cc(C)nc(NC(=O)C(C)Oc2ccc(Cl)cc2Cl)n1 (stereo not drawn) [CBK265600] | 90.4 |
